The source of these data is US9567339B2, “Primary carboxamides as BTK inhibitors” (AbbVie Inc., priority 2013, dated 2017).

A value given as a limit tells only on which side of the number the result lay.

Chain of BTK, recombinant human catalytic domain (aa 393-659) (Q06187 393-659): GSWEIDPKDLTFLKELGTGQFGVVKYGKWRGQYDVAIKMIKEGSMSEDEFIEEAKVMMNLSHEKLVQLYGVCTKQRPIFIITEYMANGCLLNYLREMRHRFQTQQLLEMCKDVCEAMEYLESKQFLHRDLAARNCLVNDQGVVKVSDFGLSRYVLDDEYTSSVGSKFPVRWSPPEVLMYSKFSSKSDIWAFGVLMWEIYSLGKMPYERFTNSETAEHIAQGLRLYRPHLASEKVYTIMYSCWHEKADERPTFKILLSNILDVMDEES

The first experiment addresses BTK, recombinant human catalytic domain (aa 393-659) (Homo sapiens (Human), UniProt Q06187). In words: In vitro BTK kinase activity measured by time-resolved fluorescence resonance energy transfer (trFRET). To be noted: read-out: Btk IC50. In kind it is biochemical.
Regarding `COCCNC/C=C/C(=O)Nc1cccc(-c2ccc(C(N)=O)c3[nH]ccc23)c1C` [J.1.3], the IC50 was in the range of 1000 to 10000 nM. Regarding `C=CC(=O)N1CCC[C@H](c2cnc(C(N)=O)c3sc(-c4cnn(C)c4)nc23)C1` [E.9.36], the IC50 is under 100 nM. On the same count and under the same terms, under `Cn1cc(-c2cc3c(-c4cccc(-n5cnc6ccc(F)cc6c5=O)c4CO)ccc(C(N)=O)c3[nH]2)cn1` [M.1.1] stands under 100 nM; under `COC(=O)/C=C/C(=O)Nc1cccc(-c2ccc(C(N)=O)c3[nH]c(C4=CCN(S(C)(=O)=O)CC4)cc23)c1C` [D.7.18], under 100 nM.

Regarding `C=CC(=O)Nc1cc(-c2ccc(C(N)=O)c3[nH]ccc23)ccc1OCc1nccs1` [E.1.13], the IC50 was 100 to 1000 nM. Regarding `CC/C=C(\C)C(=O)Nc1cccc(-c2ccc(C(N)=O)c3[nH]c(C4=CCN(S(C)(=O)=O)CC4)cc23)c1C` [D.7.16], the IC50 is under 100 nM. Turning to `Cc1c(NC(=O)C2CCCN(C)C2)cccc1-c1ccc(C(N)=O)c2[nH]c(C3=CCN(S(C)(=O)=O)CC3)cc12` (centres unmarked) [D.7.37], the IC50 was in the range of 100 to 1000 nM.

With `C=CC(=O)N1C[C@@H]2CN(c3ccc(C(N)=O)c4[nH]ccc34)C[C@@H]21` [E.9.43], the IC50 was in the range of 100 to 1000 nM.

Turning to `C=CC(=O)N1CCO[C@H](c2ccc(C(N)=O)c3[nH]c(-c4cnn(C)c4)cc23)C1` [E.9.23], the IC50 was under 100 nM. Still for that read-out and setting: the figure for `C=CC(=O)N1CCOC[C@@H](c2cnc(C(N)=O)c3[nH]ccc23)C1` [Example 3.1] is 100 to 1000 nM; for `Cc1c(-c2ccc(C(N)=O)c3[nH]c(-c4cnn(C[C@H](O)CO)c4)cc23)cccc1-n1cnc2ccccc2c1=O` [K.1.1] it is under 100 nM; for `C=CC(=O)N[C@@H]1CC[C@@H](c2ccc(C(N)=O)c3[nH]ccc23)C1` [E.9.50] it is under 100 nM. As for `Cn1cc(-c2cc3c(N4CCC[C@@H](NC(=O)c5ccc(OC(F)(F)F)cc5)C4)ccc(C(N)=O)c3[nH]2)cn1` [O.1.24*], the IC50 was in the range of 100 to 1000 nM. Take `Cc1c(NC(=O)C2=CCCC2)cccc1-c1ccc(C(N)=O)c2[nH]c(C3=CCN(S(C)(=O)=O)CC3)cc12` [D.7.15]: the half-maximal inhibitory concentration (IC50) is under 100 nM. As for `Cn1cc(-c2cc3c(N4CCC[C@@H](NC(=O)c5ccc(C(F)F)cc5)C4)ccc(C(N)=O)c3[nH]2)cn1` [O.1.22*], the IC50 lay within 100 to 1000 nM.

`Cc1c(NC(=O)C(C)Cl)cccc1-c1ccc(C(N)=O)c2[nH]c(C3=CCN(S(C)(=O)=O)CC3)cc12` (centres unmarked) [D.7.8]: the IC50 was under 100 nM. Regarding `C=CC(=O)N1CC(N(C)c2ccc(C(N)=O)c3[nH]c(-c4ccc(CN5CCOCC5)cn4)cc23)C1` [E.9.13], the IC50 is under 100 nM.

For the molecule `Cc1c(-c2ccc(C(N)=O)c3[nH]c(-c4cnn(CCO)c4)cc23)cccc1-n1cnc2ccccc2c1=O` [M.1.2], the IC50 is under 100 nM.

`CC(=O)N1CC=C(c2cc3c(-c4cccc(-n5cnc6ccccc6c5=O)c4C)ccc(C(N)=O)c3[nH]2)C1` [E.8.1]: the IC50 is under 100 nM. For the molecule `CS(=O)(=O)N1CC=C(c2cc3c(N4CCC[C@@H](N5CCn6ccnc6C5=O)C4)ccc(C(N)=O)c3[nH]2)CC1` [O.1.3*], the IC50 was under 100 nM. Consider `Cc1ccc(-c2cc3c(-c4nccs4)ccc(C(N)=O)c3[nH]2)cc1` [U.1.2], for which the IC50 is under 100 nM. Same read-out and setting: under `C=CC(=O)Nc1cccc(-c2ncc(C(N)=O)c3[nH]ccc23)c1C` [E.1.9] stands under 100 nM. Still for that read-out and setting: the figure for `Cc1c(NC(=O)COc2ccccc2)cccc1-c1ccc(C(N)=O)c2[nH]c(C3=CCN(S(C)(=O)=O)CC3)cc12` [D.7.21] is under 100 nM; for `C=CC(=O)N1CC(N(C)c2ccc(C(N)=O)c3[nH]c(C4(O)COC4)cc23)C1` [E.9.1.1] it is 100 to 1000 nM. Turning to `C=CC(=O)Nc1cc(-c2ccc(C(N)=O)c3[nH]ccc23)ccc1Cl` [E.1.19], the IC50 was under 100 nM. Consider `Cc1c(NC(=O)C2CCCC2)cccc1-c1ccc(C(N)=O)c2[nH]c(C3=CCN(S(C)(=O)=O)CC3)cc12` [D.7.31], for which the IC50 is under 100 nM. Turning to `C=CC(=O)N1CC(N(C)c2ccc(C(N)=O)c3[nH]c(C4=CCC(F)(F)CC4)cc23)C1` [E.9.5], the IC50 was under 100 nM.

As to `C=CC(=O)Nc1cc(C)cc(-c2ccc(C(N)=O)c3[nH]ccc23)c1` [E.1.29], the IC50 fell in the range of 100 to 1000 nM. For the molecule `Cc1c(NC(=O)CCN2CCN(C)CC2)cccc1-c1ccc(C(N)=O)c2[nH]c(C3=CCN(S(C)(=O)=O)CC3)cc12` [D.7.27], the IC50 is under 100 nM. For the molecule `COc1ccc(C(=O)N[C@@H]2CCCN(c3ccc(C(N)=O)c4[nH]ccc34)C2)cc1` [O.1.9*], the IC50 is 1000 to 10000 nM. Regarding `Cc1c(NC(=O)/C=C/CNC2CC2)cccc1-c1ccc(C(N)=O)c2[nH]ccc12` [J.1.4], the IC50 lay within 100 to 1000 nM.

`C=CC(=O)N1CC(N(C)c2ccc(C(N)=O)c3[nH]c(-c4cnn(C)c4)cc23)C1` [E.9.14]: the IC50 is under 100 nM. In the case of `C=CC(=O)N(CC1CCCC1)c1cccc(-c2ccc(C(N)=O)c3[nH]ccc23)c1` [E.1.34, 4-(3-(N-(cyclopentylmethyl)acrylamido)phenyl)-1H-indole-7-carboxamide], the IC50 fell in the range of 1000 to 10000 nM. Regarding `C=CC(=O)Nc1cc(-c2ccc(C(N)=O)c3[nH]ccc23)ccc1OC` [E.1.8], the IC50 was 100 to 1000 nM. Take `Cn1cc(-c2cc3c(N4CCC[C@@H](n5cnc6ccccc6c5=O)C4)ccc(C(N)=O)c3[nH]2)cn1` [O.1.16*]: the IC50 lay in the range of 100 to 1000 nM.

The same experiment, now with this note: trFRET, 0.001 mM ATP, biotin-TYR1 peptide substrate; read-out: Btk IC50.
As to `C=CC(=O)Nc1cccc(-c2ccc(C(N)=O)c3[nH]c(-c4ccnn4C4CCCCO4)cc23)c1C` (centres unmarked) [A.1.2], the IC50 is under 100 nM. The same measure, in the same setting: under `Cc1c(NC(=O)c2ccc(C(C)(C)C)cc2)cccc1-c1ccc(C(N)=O)c2[nH]ccc12` [A.5.6] stands 1000 to 10000 nM. For the molecule `C=CC(=O)Nc1cccc(-c2ccc(C(N)=O)c3[nH]c(-c4ccnc(OC)c4)cc23)c1C` [A.1.13], the IC50 was under 100 nM.

For the molecule `CC(=O)N1CCC(c2cc3c(-c4cccc(NC(=O)c5ccc(C6CC6)cc5)c4C)ccc(C(N)=O)c3[nH]2)CC1` [D.5.1], the half-maximal inhibitory concentration (IC50) was in the range of 100 to 1000 nM. Consider `C=CC(=O)N1CCC[C@@H](c2ccc(C(N)=O)c3[nH]ccc23)C1` [30 (S), (S)-4-(1-acryloylpiperidin-3-yl)-1H-indole-7-carboxamide], for which the IC50 is under 100 nM. Consider `Cc1c(NC(=O)c2ccc(C3CC3)cc2)cccc1-c1ccc(C(N)=O)c2[nH]c(-c3cncnc3)cc12` [A.13.4], for which the IC50 is 100 to 1000 nM. On to `C=CC(=O)Nc1cccc(-c2ccc(C(N)=O)c3[nH]c(-c4ccc(F)cc4)cc23)c1C` [A.1.32], for which the IC50 is under 100 nM.

For `C=CC(=O)Nc1cccc(-c2ccc(C(N)=O)c3[nH]c(CC)cc23)c1` [Example 20, 4-(3-Acrylamidophenyl)-2-ethyl-1H-indole-7-carboxamide], the IC50 was under 100 nM. With `CS(=O)(=O)N1CC=C(c2cc3c(N4CCC[C@@H](NC(=O)c5nccs5)C4)ccc(C(N)=O)c3[nH]2)CC1` [Example 13A, (R)—N-(1-(7-Carbamoyl-2-(1-(methylsulfonyl)-1,2,3,6-tetrahydropyridin-4-yl)-1H-indol-4-yl)piperidin-3-yl)thiazole-2-carboxamide], the IC50 was under 100 nM.

For `C#CC(=O)N1CC(N(C)c2ccc(C(N)=O)c3[nH]c(C)cc23)C1` [D.10.1], the IC50 is under 100 nM.

Take `C=CC(=O)Nc1cccc(-c2ccc(C(N)=O)c3[nH]c(-c4c(C)n[nH]c4C)cc23)c1C` [A.1.3]: the IC50 fell in the range of 100 to 1000 nM. As to `Cc1ccc(-c2cc3c(-c4cccs4)ccc(C(N)=O)c3[nH]2)cc1` [A.8.9], the IC50 was 100 to 1000 nM. On to `CC(=O)N1CC=C(c2cc3c(-c4cccc(NC(=O)c5ccc(C(C)(C)C)cc5)c4C)ccc(C(N)=O)c3[nH]2)CC1` [A.3.3], for which the IC50 is under 100 nM.

Turning to `CS(=O)(=O)N1CC=C(c2cc3c(-c4cccc(Nc5ccnc(C#N)n5)c4)ccc(C(N)=O)c3[nH]2)CC1` [A.4.8], the IC50 is under 100 nM. Turning to `CS(=O)(=O)N1CC=C(c2cc3c(-c4ccccc4)ccc(C(N)=O)c3[nH]2)CC1` [A.4.7], the IC50 was under 100 nM. In the case of `Cc1c(-c2ccc(C(N)=O)c3[nH]c(C4=CCOCC4)cc23)cccc1-n1cnc2ccccc2c1=O` [A.11.1], the IC50 was under 100 nM. With `Cc1ccc(-c2cc3c(-c4cnn(C)c4)ccc(C(N)=O)c3[nH]2)cc1` [A.8.7], the IC50 lay within 100 to 1000 nM. Regarding `CCCC(=O)NCc1ccccc1-c1cc2c(-c3cccc(NC(=O)c4nccs4)c3C)ccc(C(N)=O)c2[nH]1` [D.1.8], the IC50 fell in the range of 1000 to 10000 nM. For `C=CC(=O)N[C@@H]1CC[C@H](c2ccc(C(N)=O)c3[nH]ccc23)C1` (relative stereo) [Example 10, 4-(cis-3-Acrylamidocyclopentyl)-1H-indole-7-carboxamide], the 50% inhibitory concentration (IC50) is under 100 nM. As to `C=CC(=O)Nc1cccc(-c2ccc(C(N)=O)c3[nH]ccc23)c1` [A.5.2], the IC50 is 100 to 1000 nM. As for `C=CC(=O)Nc1cccc(-c2ccc(C(N)=O)c3[nH]c(-c4cncnc4)cc23)c1C` [A.1.10], the IC50 was under 100 nM. Same read-out and setting: under `C=CC(=O)Nc1cccc(-c2ccc(C(N)=O)c3[nH]c(-c4ccncc4)cc23)c1C` [A.1.12] stands under 100 nM; under `Cc1c(-c2ccc(C(N)=O)c3[nH]c(-c4cnn(C)c4)cc23)cccc1-n1cnc2ccccc2c1=O` [A.10.1], under 100 nM. Still for that read-out and setting: the figure for `CC(=O)N1CC=C(c2cc3c(-c4cccc(-n5cnc6ccc(F)cc6c5=O)c4C)ccc(C(N)=O)c3[nH]2)CC1` [A.3.2] is under 100 nM; for `C/C=C/C(=O)Nc1cccc(-c2ccc(C(N)=O)c3[nH]ccc23)c1C` [D.8.9] it is 100 to 1000 nM. The same measure, in the same setting: the figure for `C=C(C)C(=O)Nc1cccc(-c2ccc(C(N)=O)c3[nH]ccc23)c1C` [D.8.10] is 1000 to 10000 nM.

Take `C=CC(=O)Nc1cccc(-c2ccc(C(N)=O)c3[nH]c(-c4ccc(C(=O)N5CCCC5)cc4)cc23)c1C` [A.1.38]: the IC50 was under 100 nM.

Consider `Cc1c(N)cccc1-c1ccc(C(N)=O)c2[nH]c(C3=CCN(S(C)(=O)=O)CC3)cc12` [A.4.5, 4-(3-amino-2-methylphenyl)-2-(1-(methylsulfonyl)-1,2,3,6-tetrahydropyridin-4-yl)-1H-indole-7-carboxamide], for which the IC50 is under 100 nM.

On to `CC#CC(=O)Nc1c[nH]c2c(C(N)=O)ccc(-c3cccc(NC(=O)c4nccs4)c3C)c12` [D.3.5], for which the IC50 fell in the range of 1000 to 10000 nM. For the molecule `CC(=O)N1CC=C(c2cc3c(-c4cccc(NC(=O)c5nccs5)c4C)ccc(C(N)=O)c3[nH]2)CC1` [A.3.4], the IC50 is under 100 nM.
